{"source": "patent US10869926B2", "about": "“Suppression of myeloid derived suppressor cells and immune checkpoint blockade” (The Johns Hopkins University, priority 2014, dated 2020)", "key": {"4T1 cells": {"system": "4T1 cells", "experiment": "In vitro survival assay (WST-1)", "format": "cell-based, murine", "details": "24 hours, 0 to 50 μM", "protocol": "4T1 (CRL-2539, murine breast tumor cells) and CT26 (CRL-2638, murine colorectal adenocarcinoma) were purchased from ATCC. Both tumor cell lines were grown in McCoy's 5A supplemented with 10% Fetal Bovine Serum at 37° C., 5% CO2.\nMDSCs and CD8^+ T cells were plated on 96-well plate at 2×10^6 cells/ml in RPMI1640 medium supplemented with 10% FBS. CD8^+ T cell cultures were supplemented with recombinant interleukin-2 (Invitrogen Life Technologies) at 2000 U/ml. 4T1 cells in McCoy 5A supplemented with 10% FBS were plated on 96-well plate and cultured until they reached >70% confluency. Cells were cultured with entinostat, 5-azacytidine, or J32 at concentrations ranging from 0 μM to 50 μM for 24 hours at 37° C., 5% CO2. The proportion of viable cells was assessed by incubating the cells with 10% (v/v) Cell Proliferation Reagent WST-1 (Roche Applied Science) for 3 hours at 37° C. and measuring OD450 absorbance of the resulting formazan products."}, "G-MDSCs [1]": {"system": "G-MDSCs", "experiment": "In vitro survival assay (WST-1)", "format": "cell-based, mouse", "details": "24 hours, 0 to 50 μM", "excerpt": "(§2) MDSCs from 4T1 tumor-bearing animals were isolated from spleens using Myeloid-Derived Suppressor Cell Isolation Kit, mouse (Miltenyi Biotec) and BD FACS Aria III cell sorter (BD Biosciences). CD8^+ cells were isolated from spleens of 4T1-bearing animals treated with anti-PD-1 and anti-CTLA-4 antibodies using CD8a^+ T Cell Isolation Kit II, mouse (Miltenyi Biotec) and BD FACS Aria III cell sorter (BD Biosciences). MDSC, Tregs, and CD8^+ T cells were isolated and cultured by following the manufacturer's protocols and published protocols (38, 39). The purity of G-MDSCs (CD11b^+Ly6G^+Ly6C^loF4/80^−MHC-II^−) and CD8^+ (CD3^+CD8^+) populations were greater than 95% as determined by flow cytometry, and the viability was greater than 95% for these populations as determined by trypan blue staining.\n(§3) MDSCs and CD8^+ T cells were plated on 96-well plate at 2×10^6 cells/ml in RPMI1640 medium supplemented with 10% FBS. CD8^+ T cell cultures were supplemented with recombinant interleukin-2 (Invitrogen Life Technologies) at 2000 U/ml. […] The proportion of viable cells was assessed by incubating the cells with 10% (v/v) Cell Proliferation Reagent WST-1 (Roche Applied Science) for 3 hours at 37° C. and measuring OD450 absorbance of the resulting formazan products."}, "[2]": {"system": "MHC-I, B2M and TAP1 genes in 4T1 cells", "experiment": "RT-PCR of genes involved in MHC-I presentation", "format": "cell-based, murine", "details": "4T1 cells cultured in vitro", "protocol": "(§1) 5×10^6 CT26 or 4T1 cells were resuspended in 0.75 ml Trizol LS Reagent (Invitrogen Life Technologies) and 0.25 ml chloroform (Sigma-Aldrich). Samples were vortexed for 15 seconds and incubated for 10 minutes at 20° C. […] Samples were centrifuged at 12000 g for 10 minutes at 4° C. after 10 minute incubation at 20° C. The resulting pellets were air dried for less than 10 minutes and were resuspended with RNAse-free water (Invitrogen Life Technologies) for a final concentration of 500 ng/μl. PCR was performed using SuperScript III One-Step RT-PCR System with Platinum Taq DNA Polymerase (Invitrogen Life Technologies). Annealing temperature was set at 55° C. for H-2D(d), β2m and TAP1, and set at 60° C. for β-actin. […] The following […] used for RT-PCR: H-2D(d) Forward [NT] (SEQ ID NO: 1), H-2D(d) Reverse [NT] ID NO: 2), β2m Forward [NT] ID NO: 3), β2m Reverse [NT] ID NO: 4), TAP1 Forward [NT] ID NO: 5), TAP1 Reverse [NT] ID NO: 6), β-actin Forward [NT] ID NO: 7), β-actin Reverse [NT] ID NO: 8)."}, "[3]": {"system": "MHC-I, B2M and TAP1 genes in CT26 cells", "experiment": "RT-PCR of genes involved in MHC-I presentation", "format": "cell-based, murine", "details": "CT26 cells cultured in vitro", "protocol": "as §1"}, "4T1 tumors": {"system": "4T1 tumors", "experiment": "4T1 primary tumors and metastatic lesions (metastasis analysis)", "format": "in vivo, BALB/c mice", "details": "for metastases (in words) / primary tumors (in words): 4T1, sacrificed six weeks after tumor implantation; for Liver Mets / Lung Mets / Primary Tumor Vol (mm^3) / Spleen Mets: six weeks after tumor implantation", "protocol": "Tumor volume was calculated as length×width×0.5.\nOn day 46 post-tumor implantations, 4T1 tumor bearing mice were euthanized according to the IACUC guidelines. Lungs, livers and spleens were harvested and fixed in 10% Neutral Buffered Formalin Solution (Sigma-Aldrich) and metastatic nodules were counted from at least three mice per group."}, "[4]": {"details": "mouse, in vivo", "description": "Body weight measurements. BALB/c mice bearing 4T1 tumors were treated with indicated therapeutic modalities. Their body weights were measured and recorded regularly after treatments. Means and standard deviations of data are shown.\nSix to eight weeks old female BALB/C mice (Harlan Laboratories) were used for all animal experiments. 5×10^6 4 T1 tumor cells or 5×10^6 CT26 tumor cells were inoculated subcutaneously into the right flank of each mouse. Tumors were allowed to grow for 11 days prior to randomization and treatment. CT26 bearing mice were given 10 mg/kg of anti-PD-1 and/or anti-CTLA-4 antibodies intraperitoneally on day 11, 13, 15, 17, 20, 23 and 26 post-tumor implantations and 4T1 bearing mice were given 10 mg/kg anti-PD-1 and/or anti-CTLA-4 antibodies intraperitoneally on day 11, 13, 15, and 17 post-tumor implantations. 4T1 tumor bearing mice were given a single dose of 10 mg/kg anti-CD25 antibody or 10 mg/kg anti-Ly6G antibody intraperitoneally on day 12 post-tumor implantation for cell depletion studies. All antibodies were diluted to appropriate concentrations in 100 μl sterile PBS, pH 7.4 (Invitrogen Life Technologies). […] 4T1 bearing mice were injected intraperitoneally on day 12, 14, 16, and 18. […] Tumor volume was calculated as length×width×0.5."}, "G-MDSCs [5]": {"system": "G-MDSCs", "experiment": "Flow cytometry of G-MDSCs in 4T1 tumor-bearing mice", "format": "in vivo, BALB/c mice", "details": "added to / in combination with PD-1/CTLA-4 inhibition", "source_text": "The following antibodies and reagents were used for flow cytometry: CD16/32 (BD Biosciences), CD3e Alexa Fluor 488 (14-C11; BD Biosciences), CD4 Brilliant Violet 421 (GK1.5, BD Biosciences), CD8a PerCP-Cy5.5 (53-6.7, BD Biosciences), CD25 PE (PC61, BD Biosciences), Foxp3 Alexa Fluor 647 (MF23, BD Biosciences), CD11b Alexa Fluor 700 (M1/70, BD Biosciences), I-A/I-E Alexa Fluor 488 (M5/114.15.2, BD Biosciences), Ly-6C PerCP-Cy5.5 (AL-21, BD Biosciences), CD11c PE (HL3, BD Biosciences), F4/80 APC (BM8, Biolegend), Ly-6G Pacific Blue (1A8, Biolegend), CD45 Pacific Orange (30-F11, Invitrogen Life Technologies), and Live/Dead Fixable Near IR Dead Cell Stain (Invitrogen Life Technologies). Flow cytometry was performed with LSR II (BD Biosciences) and the data was analyzed with FACS Diva software (BD Biosciences). To assess the level of circulating G-MDSC population, blood samples were collected from the mice 7 days after the initiation of the anti-PD-1/anti-CTLA-4 antibody treatments with or without 5-AZA/Entinostat. […] CD8^+ T cell level was assessed using previously established phenotypic criteria of CD45^+CD3^+CD8^+ and total CD45^+CD3^+ cells was used as a common denominator. Treg cell level was assessed using previously established phenotypic criteria of CD45^+CD3^+CD4^+CD25^+FoxP3^+ and total CD45^+CD3^+CD4^+ cells were used as a common denominator."}, "CD8+ T cells": {"system": "CD8+ T cells", "experiment": "In vitro survival assay (WST-1)", "format": "cell-based, mouse", "details": "24 hours, 0 to 50 μM", "excerpt": "as §2, §3"}, "[6]": {"system": "IFN-γ secretion in co-cultures of G-MDSCs and CD8+ T cells", "experiment": "IFN-γ assay in G-MDSC / CD8+ T cell co-cultures (ELISA)", "format": "cell-based, mouse", "details": "G-MDSC to CD8+ T cell ratio 1:1, 24 hours, 0 to 0.25 μM", "protocol": "Freshly isolated MDSCs and CD8^+ T cells from 4T1 tumor-bearing animals were cultured at MDSC to CD8^+ T cell ratios of 5:1, 2:1, 1:1, 1:2, and 1:5 in presence of recombinant IL-2 (Invitrogen Life Technologies) at 2000 U/mL and CD3/CD28 antibody coated beads (Miltenyi). MDSC and CD8^+ T cells were cultured at 1:1 ratio with entinostat at concentrations ranging from 0 μM to 0.25 μM. Cell-free supernatants were collected after 24-hour incubation at 37° C. and IFN-γ levels were assayed using Mouse IFN-γ DuoSet Elisa Development Kit (R&D Systems) according to the manufacturer's instruction."}, "[7]": {"details": "individual mouse, listed as ENT"}}, "note": "Where “and” joins values, the source holds several entries; their conditions need not be identical. Identical values can stand only once.", "data": [{"smiles": "Nc1ncn([C@@H]2O[C@H](CO)[C@@H](O)[C@H]2O)c(=O)n1", "note": "[AZA, 5-azacytidine]", "values": [{"measurement": "cell viability", "setting": "4T1 cells", "value": "unresponsive"}, {"measurement": "cell viability", "setting": "G-MDSCs [1]", "value": "no effect at comparable concentrations"}, {"measurement": "expression of MHC-I, B2M and TAP1 genes", "setting": "[2]", "value": "did not significantly increase the expression"}, {"measurement": "expression of MHC-I, B2M and TAP1 genes", "setting": "[3]", "value": "did not significantly increase the expression"}, {"measurement": "metastases (in words)", "setting": "4T1 tumors", "value": "unable to eradicate either primary tumor or metastasis"}, {"measurement": "primary tumors (in words)", "setting": "4T1 tumors", "value": "unable to eradicate either primary tumor or metastasis"}, {"measurement": "Liver Mets", "setting": "4T1 tumors; AVERAGE of group", "value": 12}, {"measurement": "Lung Mets", "setting": "4T1 tumors; AVERAGE of group", "value": 17}, {"measurement": "Primary Tumor Vol (mm^3)", "setting": "4T1 tumors; AVERAGE of group", "value": 2750, "unit": "mm^3"}, {"measurement": "Spleen Mets", "setting": "4T1 tumors; AVERAGE of group", "value": 1}, {"measurement": "Liver Mets", "setting": "4T1 tumors; individual mouse", "value": "0 (3×) and 43 and 16"}, {"measurement": "Lung Mets", "setting": "4T1 tumors; individual mouse", "value": "20 (2×) and 16 and 17 and 14"}, {"measurement": "Primary Tumor Vol (mm^3)", "setting": "4T1 tumors; individual mouse", "value": "2345 mm^3 and 2454 mm^3 and 2477 mm^3 and 4358 mm^3 and 2117 mm^3"}, {"measurement": "Spleen Mets", "setting": "4T1 tumors; individual mouse", "value": "0 (3×) and 3 and 1"}]}, {"smiles": "Nc1ccccc1NC(=O)c1ccc(CNC(=O)OCc2cccnc2)cc1", "note": "[entinostat]", "values": [{"measurement": "cell viability", "setting": "4T1 cells", "value": "unresponsive"}, {"measurement": "toxicity as indicated by body weight changes", "setting": "[4]", "value": "Temporary self-limiting toxicity"}, {"measurement": "cell viability", "setting": "G-MDSCs [1]", "value": "markedly reduced viability"}, {"measurement": "number of circulating G-MDSCs", "setting": "G-MDSCs [5]", "value": "striking reduction in the number of circulating G-MDSCs"}, {"measurement": "expression of MHC-I, B2M and TAP1 genes", "setting": "[2]", "value": "did not significantly increase the expression"}, {"measurement": "expression of MHC-I, B2M and TAP1 genes", "setting": "[3]", "value": "did not significantly increase the expression"}, {"measurement": "metastases (in words)", "setting": "4T1 tumors", "value": "unable to eradicate either primary tumor or metastasis"}, {"measurement": "primary tumors (in words)", "setting": "4T1 tumors", "value": "unable to eradicate either primary tumor or metastasis"}, {"measurement": "Liver Mets", "setting": "4T1 tumors; AVERAGE of group", "value": 4}, {"measurement": "Lung Mets", "setting": "4T1 tumors; AVERAGE of group", "value": 17}, {"measurement": "Primary Tumor Vol (mm^3)", "setting": "4T1 tumors; AVERAGE of group", "value": 3483, "unit": "mm^3"}, {"measurement": "Spleen Mets", "setting": "4T1 tumors; AVERAGE of group", "value": 1}, {"measurement": "Liver Mets", "setting": "4T1 tumors; [7]", "value": "10 and 3 and 0 (2×) and 6"}, {"measurement": "Lung Mets", "setting": "4T1 tumors; [7]", "value": "25 and 20 (2×) and 0 and 22"}, {"measurement": "Primary Tumor Vol (mm^3)", "setting": "4T1 tumors; [7]", "value": "3005 mm^3 and 5038 mm^3 and 2275 mm^3 and 3063 mm^3 and 4032 mm^3"}, {"measurement": "Spleen Mets", "setting": "4T1 tumors; [7]", "value": "1 and 0 (3×) and 3"}, {"measurement": "cell viability", "setting": "CD8+ T cells", "value": "only modest effects"}, {"measurement": "IFN-γ secretion inhibited by G-MDSCs", "setting": "[6]", "value": "reversed the inhibition in a dose-dependent manner"}]}]}
